Each structure is given as a SMILES string.

The data set is described as follows: solvent given as SMILES.
The mark [1] stands for this setting: in O=P(c1ccccc1)(c1ccccc1)c1ccccc1Oc1ccccc1P(=O)(c1ccccc1)c1ccccc1.

For `COC(=O)c1cc(=O)n(C)c2cc(-c3ccc4c(c3)OCCO4)sc12`, for the setting “in ClCCl”, the fluorescence lifetime turned out to be 2.15 ns.
The molecule `c1ccc2c(c1)[nH]c1c3ccccc3[nH]c21` had a fluorescence lifetime (in CCCO) of 5.5 ns.
Under “in CO”, `CCOC(=O)CCCCCn1c2ccccc2c(=O)c2cc3c(cc21)c(=O)c1ccccc1n3CCCCCC(=O)OCC` registered a fluorescence lifetime of 21.6 ns.
Consider `CCOC(=O)C1CC(c2c(C#N)c(C)nn2-c2ccccc2)=CN1c1ccc(Br)cc1` (configuration not stated), for which the fluorescence lifetime runs as follows: (in C1CCOC1) 5.02 ns; (in C1COCCO1) 5.29 ns; (in CC#N) 4.91 ns; (in CCCCCCC) 4.54 ns; (in CCO) 3.66 ns; (in O) 4.2 ns. The fluorescence lifetime was 2.17 ns (in OCC(O)CO) and 2.8 ns (in OCCO).
`COc1ccc(C(=Cc2ccc(/C=C(\C#N)c3ccccc3)cc2)c2ccc(OC)cc2)cc1` gave a fluorescence lifetime (in C1CCOC1) of 0.5 ns.
For the molecule `CCNc1cc2oc3c/c(=[NH+]\CC)c(C)cc-3c(-c3ccccc3C(=O)OCC)c2cc1C`, the fluorescence lifetime by setting is: (in CC#N) 4.18 ns; (in CC(C)O) 3.96 ns; (in CCCCCCCCO) 3.83 ns; (in CCCCCCO) 3.88 ns; (in CCCCO) 3.89 ns; (in CCCO) 3.95 ns. The fluorescence lifetime (in CCO) was 3.96 ns; the fluorescence lifetime (in CN(C)C=O) is 3.86 ns; the fluorescence lifetime (in CO) was 3.7 ns; the fluorescence lifetime (in O) came out at 4.22 ns; the fluorescence lifetime (in [2H]O[2H]) turned out to be 4.36 ns.
With `[NH3+]C1(c2ccc3cc(O)ccc3c2)C2CC3CC(C2)CC1C3` (configuration not stated), the fluorescence lifetime (in CC#N) was determined as 10.3 ns.
Take `N#Cc1ccc(/C=C/c2c3ccccc3cc3ccccc23)cc1`: the fluorescence lifetime by setting is: (in C1CCOC1) 0.82 ns; (in CC1CCCCC1) 3.01 ns; (in CC#N) 0.68 ns; (in CO) 0.6 ns; (in Cc1ccccc1) 2.12 ns; (in ClC(Cl)Cl) 0.82 ns.
For the molecule `c1ccc(-c2nc(-c3ccccc3)nc(-c3ccc(-n4c5ccccc5c5cc6c(cc54)C4(c5ccccc5-c5ccccc54)c4ccccc4-6)cc3)n2)cc1`, the fluorescence lifetime under setting [1] was found to be 3.9 ns.
Consider `Clc1nc(Nc2ccccc2)nc(Nc2ccc3cc4ccccc4cc3c2)n1`, for which the fluorescence lifetime runs as follows: (in C1COCCO1) 10.3 ns; (in CCOC(C)=O) 6.6 ns.
On to `N#Cc1cccc(C#N)c1-n1c2ccccc2c2cc(-c3ccc4c(c3)c3ccccc3n4-c3c(C#N)cccc3C#N)ccc21`, for which the fluorescence lifetime (in Cc1ccccc1) stood at 28 ns.
On to `c1ccc(-c2ccnc(-c3ccccc3)n2)cc1`, for which the fluorescence lifetime (in ClC(Cl)Cl) was 0.6 ns.
For the molecule `Cc1ccc(C2=C3C=CC(/C=C/c4ccccc4)=[N+]3[B-](F)(F)n3c(/C=C/c4ccccc4)ccc32)cc1`, the fluorescence lifetime was 4.37 ns (in C1CCCCC1); 4.09 ns (in C1CCOC1); 4.31 ns (in C1COCCO1); 4.77 ns (in CCOC(C)=O); 4.54 ns (in CO); 4.48 ns (in Cc1ccccc1). In addition, the fluorescence lifetime (in ClC(Cl)Cl) came to 4.63 ns.
`Cn1c(/C=C/c2ccc(/C=C/c3nc4ccccc4[nH]3)cc2)[n+](C)c2ccccc21`: the fluorescence lifetime worked out at 1.43 ns (in C1CCOC1); 1.16 ns (in CC#N); 1.15 ns (in CC(C)=O); 1.11 ns (in CN(C)C=O); 0.773 ns (in CO); 1.22 ns (in CS(C)=O). The molecule also had a fluorescence lifetime (in O) of 0.42 ns.
For `F[B-]1(F)Oc2ccc(Br)cc2-c2c3c(c4c([n+]21)CCc1ccccc1-4)CCc1ccccc1-3`, for the setting “in ClCCl”, the fluorescence lifetime came to 0.41 ns.
Turning to `CN1CCN(c2ccc3c4c(cccc24)C(=O)c2ccccc2-3)CC1`, the fluorescence lifetime by setting is: (in C1CCCCC1) 8.9 ns; (in C1CCOC1) 10 ns; (in C1COCCO1) 10.3 ns; (in CC1COC(=O)O1) 8.04 ns; (in CC#N) 9.53 ns; (in CC(C)=O) 8.45 ns. Moreover, the fluorescence lifetime came to 5.99 ns (in CCCCCCCCO); 5.38 ns (in CCCCCO); 5.03 ns (in CCCCO); 4.66 ns (in CCCO); 3.77 ns (in CCO); 9.8 ns (in CCOC(C)=O). Moreover, the fluorescence lifetime is, setting by setting: (in CN(C)C=O) 8.27 ns; (in CO) 2.93 ns; (in CS(C)=O) 8.5 ns; (in Cc1ccccc1) 9.37 ns; (in ClC(Cl)Cl) 10.4 ns.
`O=S(=O)(c1ccc(-c2ccc3c(c2)c2ccccc2n3-c2ccccc2)cc1)c1ccc(-c2ccc3c(c2)c2ccccc2n3-c2ccccc2)cc1` yielded a fluorescence lifetime (in Cc1ccccc1) of 1.51 ns.
`Cc1ccccc1-c1nc(-c2ccccc2C)nc(-c2ccc(N3c4ccccc4C4(c5ccccc5-c5ccccc54)c4ccccc43)cc2C)n1` returned a fluorescence lifetime under setting [1] of 24 ns.
Regarding `Nc1ccc2cn[nH]c2c1`, the fluorescence lifetime came out at 4 ns (in C1CCCCC1), 5.4 ns (in CC#N), 3.1 ns (in CO) and 4.4 ns (in O).
On to `COc1c2ccccc2c(OC)c2c1c1cccc(OC)c1n2C`, for which the fluorescence lifetime by setting is: (in C1CCCCC1) 21.8 ns; (in CC#N) 26.7 ns; (in CO) 25.2 ns; (in ClCCl) 22 ns.
The molecule `COC(=O)c1cc(=O)n(C)c2cc(-c3ccc(OC)cc3)sc12` yielded a fluorescence lifetime (in ClCCl) of 2.3 ns.
As to `CCc1c(C)[nH]c(C2=[N+]3C(=Cc4c(C)cc(C)n4[B-]3(F)F)c3ccccc32)c1C`, the fluorescence lifetime worked out at 4.41 ns (in C1CCOC1); 5.55 ns (in CC#N); 7.03 ns (in CCCCCC); 5.6 ns (in CO); 5.9 ns (in Cc1ccccc1); 4.93 ns (in ClCCl).
`CCOC(=O)C1=CN(c2ccccc2)C=C(C(=O)OCC)C1c1ccccc1` gave a fluorescence lifetime (in C1CCOC1) of 8.98 ns and a fluorescence lifetime (in CO) of 15.1 ns.
`O=P1(c2ccccc2)c2cc(N3c4ccccc4Oc4ccccc43)ccc2-c2ccc(N3c4ccccc4Oc4ccccc43)cc21` registered a fluorescence lifetime (in c1ccc2c(c1)c1ccccc1n2-c1ccc(-c2ccc(-n3c4ccccc4c4ccccc43)cc2)cc1) of 23.7 ns.
Regarding `CCC1(CC)c2cc(B(c3c(C)cc(C)cc3C)c3c(C)cc(C)cc3C)ccc2-c2ccc(N(c3ccccc3)c3ccccc3)cc21`, the fluorescence lifetime worked out at 2.5 ns (in C1CCOC1); 3.5 ns (in CC#N); 2.9 ns (in CC(C)=O); 1.6 ns (in CCCCCC); 3.5 ns (in CN(C)C=O); 1.8 ns (in Cc1ccccc1). Besides, the fluorescence lifetime (in ClC(Cl)Cl) was 2.2 ns.
With `COc1ccc(C2=[O+][B-](F)(F)OC(c3ccc4c(c3)Cc3ccccc3-4)=C2)cc1`, the fluorescence lifetime (in CC#N) was found to be 1.6 ns.
Take `O=C1c2ccccc2-c2cccc(O)c21`: the fluorescence lifetime came out at 1.24 ns (in C1CCCCC1); 3.38 ns (in C1COCCO1); 9.67 ns (in CC#N); 5.5 ns (in CC(C)O); 5.22 ns (in CCCCO); 4.82 ns (in CCCO). The fluorescence lifetime by setting is: (in CCO) 4.85 ns; (in CCOC(C)=O) 5.48 ns; (in CCOCC) 2.39 ns; (in CO) 3.61 ns.
Take `Nc1cc([NH3+])cc(-c2nc3ccccc3s2)c1`: the fluorescence lifetime (in O) was found to be 3.87 ns.
Turning to `Cc1nn(-c2ccccc2)c(C2=NN(c3ccc(Br)cc3)[C@@H](c3ccccc3)[C@@H]2c2ccccc2)c1C#N`, the fluorescence lifetime by setting is: (in C1CCCCC1) 4.73 ns; (in C1CCOC1) 5.04 ns; (in C1COCCO1) 5.21 ns; (in CC#N) 5.05 ns; (in CCCCCCC) 4.64 ns; (in CCO) 4.53 ns. Besides, the fluorescence lifetime (in CN(C)C=O) was 4.95 ns, the fluorescence lifetime (in CO) was 3.74 ns, the fluorescence lifetime (in O) was 2.6 ns and the fluorescence lifetime (in OCCO) was 3.59 ns.
`C=Cc1cc2ccc(OC(=O)c3ccccc3)cc2oc1=O` returned a fluorescence lifetime (in CC#N) of 3.28 ns.
Regarding `Cc1csc2[n+]1[B-](F)(F)n1c(c3cccc4cccc1c43)=N2`, where the note is “in ClCCl”, the fluorescence lifetime was 6.5 ns.
In the case of `CNc1ccc2c(c1)C(=O)c1ccccc1-2`, the fluorescence lifetime stood at 3.1 ns (in C1CCCCC1) and 0.63 ns (in c1ccccc1).
Where the note is “in ClCCl”, `CC(C)(C)c1ccc(-c2c3c(c(-c4ccccc4)c4cc5ccccc5cc24)Cc2c(c(-c4ccccc4)c4cc5ccccc5cc4c2-c2ccc(C(C)(C)C)cc2)C3)cc1` gave a fluorescence lifetime of 2.67 ns.
With `CCOC(=O)CCCCCn1c2ccc(Cl)cc2c(=O)c2cc3c(cc21)c(=O)c1cc(Cl)ccc1n3CCCCCC(=O)OCC`, the fluorescence lifetime (in CO) stood at 22.1 ns.
In turn, `Cc1cccc(C)c1Nc1ccc(/C=C/c2ccc3ccccc3c2)cc1` displayed a fluorescence lifetime (in CC#N) of 0.2 ns.
The same measure, in the same setting: in the case of `Fc1ccc(/C=C/c2nc3c4ccccc4c4ccccc4c3o2)cc1` it was 1.88 ns.
In the case of `c1cc2ccc3ccc4cc3c2cc1CCCCCCc1ccc2ccc3ccc-4cc3c2c1`, the fluorescence lifetime (in Cc1ccccc1) was 8.7 ns.
`c1cc2c3c(cccc3c1)C(N1CCOCCNCCOCCOCC1)=N2` displayed a fluorescence lifetime (in CC#N) of 0.52 ns.
Turning to `COc1ccc2c(=O)c3c([nH]c2c1)-c1cc(Cl)ccc1NC3(C)C`, the fluorescence lifetime (in C1CCOC1) came out at 8.91 ns; the fluorescence lifetime (in CC#N) turned out to be 9.32 ns; the fluorescence lifetime (in CCCCO) turned out to be 9.93 ns; the fluorescence lifetime (in CCCO) was found to be 9.91 ns; the fluorescence lifetime (in CCO) turned out to be 9.44 ns; the fluorescence lifetime (in CCOC(C)=O) is 8.48 ns. The fluorescence lifetime is, setting by setting: (in CN(C)C=O) 10.4 ns; (in CO) 9.17 ns; (in CS(C)=O) 11.2 ns; (in Cc1ccccc1) 7.94 ns; (in ClC(Cl)(Cl)Cl) 5.41 ns; (in ClCCl) 9.85 ns. Moreover, the fluorescence lifetime worked out at 6.93 ns (in O) and 8.01 ns (in c1ccccc1).
For the setting “in C1CCOC1”, `CCn1c2ccccc2c2cc(C#Cc3cc(C#Cc4ccc5c(c4)c4ccccc4n5CC)nc(S(C)(=O)=O)n3)ccc21` displayed a fluorescence lifetime of 4.22 ns.
Consider `Cn1c(=O)c(/N=N/c2ccc(Nc3ccccc3)c(S(=O)(=O)O)c2)c(O)c2ccccc21`, for which the fluorescence lifetime (in CS(C)=O) is 0.05 ns.

Values taken from the Deep4Chem optical property database.
